According to patent US20070110804A1, “Drug polymer complexes” (ROYER BIOMEDICAL, INC., priority 2003, published 2007):
≈ marks a conversion by molar mass, not a printed value. Read-outs that look alike come from different tables or passages of the source.

Tests used:
[1] = Formation of a low-solubility polymer/drug complex (gel) on mixing polyanion sodium salt with the salt of the active ingredient
Text: A “yes” entry means that a complex of low solubility forms on mixing the sodium salt of the polymers and the salt of the active ingredient.

[2] = Distribution of amikacin between gelatinous precipitate and supernatant on mixing amikacin sulfate with dextran sulfate (Na); assay type: physicochemical; settings: amikacin sulfate solution mixed with dextran sulfate (Na) solution
Text: As part of the normal preparation of a solid dosage form based on calcium sulfate, a solution of amikacin sulfate was mixed with a solution of dextran sulfate (Na).

[3] = tested on: S. Aureus; settings: cited from earlier work
[4] = tested on: E. Coli; settings: cited from earlier work
[5] = tested on: Enterobacter spp.; settings: cited from earlier work
[6] = tested on: P. Aeruginosa; settings: cited from earlier work
[7] = In vitro release profile of the drug polymer complex in PBS at 37° C.; assay type: physicochemical; settings: ½ dextran sulfate Mw 40,000 (40,000-50,000) and ½ Mw 500,000, FIG. 6
Protocol: Release profile: Dextran sulfate/amikacin wet gel (100 mg) was placed in 2 ml centrifuge tube. PBS buffer (500 μl) was added to the centrifuged tube. After incubation at 37° C. for 24 hrs, the mixture was centrifuged at 13,000 RPM for 5 minutes. The supernatant was removed and analyzed microbiologically for the presence of drug. The process was repeated at 24 hr intervals for 31 days. The amount of released drug in the eluate was calculated from a standard curve.
The release profile is illustrated in FIG. 1. The release profiles for the compounds of the other Figures were generated in a similar manner.

[8] = mixing sodium salt of CMC-L (low viscosity carboxymethylcellulose) and salt of the active ingredient
[9] = mixing sodium salt of CMC-M (medium viscosity carboxymethylcellulose) and salt of the active ingredient
[10] = mixing sodium salt of Dextran Sulfate-500 and salt of the active ingredient

Row | Compound | complex of low solubility forms (yes/no), polymer CMC-L [1, 8] | complex of low solubility forms (yes/no), polymer CMC-M [1, 9] | complex of low solubility forms (yes/no), polymer Dextran Sulfate-500 [1, 10] | complex of low solubility forms (yes/no), polymer Dextran Sulfate-500 [1] | further results
1 | CCC(=O)C(CC(C)N(C)C)(c1ccccc1)c1ccccc1 (stereo not drawn) [Methadone] | no | no | yes | – | –
2 | NCC[C@H](O)C(=O)N[C@@H]1C[C@H](N)[C@@H](O[C@H]2O[C@H](CN)[C@@H](O)[C@H](O)[C@H]2O)[C@H](O)[C@H]1O[C@H]1O[C@H](CO)[C@@H](O)[C@H](N)[C@H]1O [Amikacin] | – | – | – | yes | complex of low solubility forms (yes/no), polymer CMC-L [1]: no; amikacin included in the gelatinous precipitate [2]: > 90%; amikacin remaining in the supernatant [2]: < 10%; MIC [3]: 1 µg/mL (≈ 1.71 µM); MIC [4]: 2 µg/mL (≈ 3.42 µM); MIC [5]: 2 µg/mL (≈ 3.42 µM); MIC [6]: 2 µg/mL (≈ 3.42 µM)
3 | CN1CCc2cccc3c2[C@H]1Cc1ccc(O)c(O)c1-3 [Apomorphine] | – | – | yes | – | –
4 | COc1ccc2c3c1O[C@H]1C(=O)CC[C@@]4(O)[C@@H](C2)N(C)CC[C@]314 [Oxycodone] | – | – | yes | – | release rate compared to all (500,000) dextran sulfate complex [7]: increases the release rate; release rate compared to all (500,000) dextran sulfate complex ([7]; listed as oxycodone): accelerated
5 | C[C@H]1c2cccc(O)c2C(=O)C2=C(O)[C@]3(O)C(=O)C(C(N)=O)=C(O)[C@@H](N(C)C)[C@@H]3[C@@H](O)[C@@H]21 [Doxycycline] | yes | yes | yes | – | –
6 | CCN(CC)CCOC(=O)c1ccc(N)cc1 [Procaine] | – | – | yes | – | –
7 | CN(C)CCCN1c2ccccc2Sc2ccc(Cl)cc21 [Chlorpromazine] | – | – | – | yes | complex of low solubility forms (yes/no), polymer CMC-L [1]: yes; complex of low solubility forms (yes/no), polymer CMC-M [1]: yes
8 | CN[C@H](CC(C)C)C(=O)N[C@H]1C(=O)N[C@@H](CC(N)=O)C(=O)N[C@H]2C(=O)N[C@H]3C(=O)N[C@H](C(=O)N[C@H](C(=O)O)c4cc(O)cc(O)c4-c4cc3ccc4O)[C@H](O)c3ccc(c(Cl)c3)Oc3cc2cc(c3O[C@@H]2O[C@H](CO)[C@@H](O)[C@H](O)[C@H]2O[C@H]2C[C@](C)(N)[C@H](O)[C@H](C)O2)Oc2ccc(cc2Cl)[C@H]1O [Vancomycin] | – | – | – | yes | complex of low solubility forms (yes/no), polymer CMC-L [1]: yes
9 | CN(C)[C@@H]1C(O)=C(C(N)=O)C(=O)[C@@]2(O)C(O)=C3C(=O)c4c(O)cccc4[C@@](C)(O)[C@H]3[C@H](O)[C@@H]12 [Oxytetracycline] | – | – | – | yes | complex of low solubility forms (yes/no), polymer CMC-L [1]: yes; complex of low solubility forms (yes/no), polymer CMC-M [1]: yes
10 | Neomycin | no | no | yes | – | –
11 | O=C1CC[C@@]2(O)[C@H]3Cc4ccc(O)c5c4[C@@]2(CCN3CC2CC2)[C@H]1O5 [Naltrexone] | no | no | yes | – | –
12 | COc1cccc2c1C(=O)c1c(O)c3c(c(O)c1C2=O)C[C@@](O)(C(=O)CO)C[C@@H]3O[C@H]1C[C@H](N)[C@H](O)[C@H](C)O1 [Doxorubicin] | yes | yes | yes | – | –
13 | CCCNC(C)C(=O)Nc1ccccc1C (stereo not drawn) [Prilocaine] | – | – | – | yes | –
14 | NC[C@H]1O[C@H](O[C@H]2[C@H](O)[C@@H](O[C@H]3O[C@H](CO)[C@@H](O)[C@H](N)[C@H]3O)[C@H](N)C[C@@H]2N)[C@H](N)C[C@@H]1O [Tobramycin] | – | – | yes | – | –
15 | CCCCNc1ccc(C(=O)OCCN(C)C)cc1 [Tetracaine] | yes | yes | yes | – | –
16 | [H]/N=C(/N)N[C@H]1[C@H](O)[C@@H](O)[C@H](O[C@@H]2O[C@@H](C)[C@](O)(C=O)[C@H]2O[C@@H]2O[C@@H](CO)[C@H](O)[C@@H](O)[C@@H]2NC)[C@@H](N/C(N)=N\[H])[C@@H]1O [Streptomycin] | – | – | yes | – | –
17 | CC[C@H]1OC(=O)[C@H](C)[C@@H](O[C@H]2C[C@@](C)(OC)[C@@H](O)[C@H](C)O2)[C@H](C)[C@@H](O[C@@H]2O[C@H](C)C[C@H](N(C)C)[C@H]2O)[C@](C)(O)C[C@@H](C)C(=O)[C@H](C)[C@@H](O)[C@]1(C)O [Erythromycin] | – | – | – | yes | complex of low solubility forms (yes/no), polymer CMC-L [1]: no; complex of low solubility forms (yes/no), polymer CMC-M [1]: no
18 | CCCCOc1cc(C(=O)NCCN(CC)CC)c2ccccc2n1 [Dibucaine] | yes | yes | yes | – | –
